Measured values reported in ChEMBL document CHEMBL1201862, “PubChem BioAssay data set” (2004).
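Growth conditions: 96-well plates. Treatment: test compound, 48 hours, 5 concentrations. Analysis: linear interpolation between bracketing concentrations; unreached endpoints set to highest concentration. The concentration for 50% growth inhibition is given as GI50.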 Activity calls are given as the source filed them. Rule as the data show it: active = GI50 up to about 1.1 µM and inactive = higher.

Tests used:
Assay in all cases: DTP human tumour cell line panel, 48 h
SK-MEL-2 = tested on: SK-MEL-2
786-0 = tested on: 786-0
OVCAR-3 = tested on: OVCAR-3
HL-60 = tested on: HL-60
HCC 2998 = tested on: HCC 2998
NCI-H23 = tested on: NCI-H23
UACC-62 = tested on: UACC-62
UO-31 = tested on: UO-31
HT-29 = tested on: HT-29
M14 = tested on: M14
OVCAR-8 = tested on: OVCAR-8
RXF 393 = tested on: RXF 393
HCT-15 = tested on: HCT-15
SK-MEL-28 = tested on: SK-MEL-28
NCI-H226 = tested on: NCI-H226
SF-295 = tested on: SF-295

SMILES	GI50 (SK-MEL-2)	GI50 (786-0)	GI50 (OVCAR-3)	GI50 (HL-60)	GI50 (HCC 2998)	GI50 (NCI-H23)	GI50 (UACC-62)	GI50 (UO-31)	GI50 (HT-29)	GI50 (M14)	GI50 (OVCAR-8)	GI50 (RXF 393)	GI50 (HCT-15) [µM]	GI50 (SK-MEL-28)	GI50 (NCI-H226)	GI50 (SF-295)
CCOC(=O)c1c[nH]c2c(ccc3ncccc32)c1=O	> 100 µM (inactive)	> 100 µM (inactive)	> 100 µM (inactive)	> 100 µM (inactive)	> 100 µM (inactive)	> 100 µM (inactive)	> 100 µM (inactive)	> 100 µM (inactive)	> 100 µM (inactive)	> 100 µM (inactive)	> 100 µM (inactive)	> 100 µM (inactive)	> 100	> 100 µM (inactive)	–	–
Cc1c(O)c(=O)ccn1CCN	> 100 µM (inactive)	> 100 µM (inactive)	–	–	> 100 µM (inactive)	> 100 µM (inactive)	> 100 µM (inactive)	> 100 µM (inactive)	> 100 µM (inactive)	> 100 µM (inactive)	> 100 µM (inactive)	> 100 µM (inactive)	> 100	> 100 µM (inactive)	> 100 µM (inactive)	–
O=C1CCC(=O)C12CCc1cccc(O)c12	–	> 100 µM (inactive)	> 100 µM (inactive)	> 100 µM (inactive)	> 100 µM (inactive)	> 100 µM (inactive)	> 100 µM (inactive)	> 100 µM (inactive)	> 100 µM (inactive)	> 100 µM (inactive)	> 100 µM (inactive)	> 100 µM (inactive)	> 100	> 100 µM (inactive)	–	> 100 µM (inactive)
O[C@]12CCCC[C@H]1CCC2	> 100 µM (inactive)	> 100 µM (inactive)	> 100 µM (inactive)	> 100 µM (inactive)	> 100 µM (inactive)	> 100 µM (inactive)	> 100 µM (inactive)	> 100 µM (inactive)	> 100 µM (inactive)	> 100 µM (inactive)	> 100 µM (inactive)	> 100 µM (inactive)	> 100	> 100 µM (inactive)	–	> 100 µM (inactive)
CCOc1ccc(O)cc1[P+](c1ccccc1)(c1ccccc1)c1ccccc1	–	7.24 µM (inactive)	0.804 µM (active)	0.501 µM (active)	2.82 µM (inactive)	1.67 µM (inactive)	3.79 µM (inactive)	17.4 µM (inactive)	2.85 µM (inactive)	4.45 µM (inactive)	3.42 µM (inactive)	3.59 µM (inactive)	–	4.47 µM (inactive)	1.64 µM (inactive)	4.5 µM (inactive)
C/C(=N\N=C(\N)S)c1ccc(Oc2ccccc2)cc1	–	4.05 µM (inactive)	10.1 µM (inactive)	4.06 µM (inactive)	7.93 µM (inactive)	11.8 µM (inactive)	10.6 µM (inactive)	–	–	9.98 µM (inactive)	11.7 µM (inactive)	10.3 µM (inactive)	3.99	11.7 µM (inactive)	–	8.07 µM (inactive)
COc1ccc(OC)c(NC(=O)C2=C(C)NC(C)=C(C(=O)Nc3cc(OC)ccc3OC)C2c2ccco2)c1	> 100 µM (inactive)	> 100 µM (inactive)	> 100 µM (inactive)	–	–	> 100 µM (inactive)	> 100 µM (inactive)	> 100 µM (inactive)	> 100 µM (inactive)	> 100 µM (inactive)	> 100 µM (inactive)	–	> 100	–	> 100 µM (inactive)	–
O=C(C#Cc1ccccc1)Nc1ccccc1CC(c1c[nH]c2ccccc12)c1c[nH]c2ccccc12	18.3 µM (inactive)	9.53 µM (inactive)	9.44 µM (inactive)	–	23.2 µM (inactive)	15.4 µM (inactive)	7.5 µM (inactive)	13.5 µM (inactive)	10.3 µM (inactive)	15.6 µM (inactive)	8.32 µM (inactive)	3.02 µM (inactive)	7.5	15.5 µM (inactive)	16.6 µM (inactive)	9.46 µM (inactive)
Cc1ccc(O)c(/N=N/c2ccc(S(=O)(=O)O)cc2)n1	–	> 100 µM (inactive)	–	> 100 µM (inactive)	–	> 100 µM (inactive)	> 100 µM (inactive)	> 100 µM (inactive)	–	> 100 µM (inactive)	> 100 µM (inactive)	> 100 µM (inactive)	> 100	> 100 µM (inactive)	–	> 100 µM (inactive)
CCCOC(=O)C1CCC(=O)N1C(=O)C(C)Cl (centres undefined)	> 100 µM (inactive)	> 100 µM (inactive)	> 100 µM (inactive)	> 100 µM (inactive)	> 100 µM (inactive)	> 100 µM (inactive)	> 100 µM (inactive)	> 100 µM (inactive)	> 100 µM (inactive)	> 100 µM (inactive)	> 100 µM (inactive)	–	> 100	> 100 µM (inactive)	> 100 µM (inactive)	> 100 µM (inactive)
CC1=C(N(C)C)C(=O)c2nc3n(c2C1=O)CCC3OC(N)=O (centres undefined)	15.6 µM (inactive)	17.1 µM (inactive)	16.8 µM (inactive)	10.4 µM (inactive)	18.2 µM (inactive)	13.8 µM (inactive)	5.58 µM (inactive)	17.3 µM (inactive)	19.7 µM (inactive)	13.6 µM (inactive)	16.7 µM (inactive)	–	14.5	20.2 µM (inactive)	19.4 µM (inactive)	15.2 µM (inactive)
CC12OC(=O)C(C#N)C1(C)C1C(=O)CCCC12 (centres undefined)	> 100 µM (inactive)	> 100 µM (inactive)	> 100 µM (inactive)	> 100 µM (inactive)	–	> 100 µM (inactive)	> 100 µM (inactive)	> 100 µM (inactive)	–	> 100 µM (inactive)	> 100 µM (inactive)	> 100 µM (inactive)	> 100	> 100 µM (inactive)	> 100 µM (inactive)	> 100 µM (inactive)
COc1cc(C2c3cc4c(cc3[C@@H](NCCN3CCCCC3)C3COC(=O)[C@H]23)OCO4)cc(OC)c1O (some centres undefined)	2.07 µM (inactive)	0.179 µM (active)	0.78 µM (active)	0.0426 µM (active)	–	0.206 µM (active)	0.272 µM (active)	0.41 µM (active)	1.19 µM (inactive)	0.273 µM (active)	0.718 µM (active)	–	0.313	2.11 µM (inactive)	0.0387 µM (active)	0.107 µM (active)
COc1cc2c3c(c1OCc1ccccc1)NCCC3NCC2 (centres undefined)	–	> 100 µM (inactive)	> 100 µM (inactive)	> 100 µM (inactive)	> 100 µM (inactive)	> 100 µM (inactive)	> 100 µM (inactive)	51.6 µM (inactive)	> 100 µM (inactive)	> 100 µM (inactive)	> 100 µM (inactive)	98.2 µM (inactive)	> 100	–	> 100 µM (inactive)	> 100 µM (inactive)
CCN(CC)c1ccc(C2N3CCCCC3[C@@H]3c4[nH]c5ccccc5c4CCN23)cc1 (some centres undefined)	> 10 µM (inactive)	37.8 µM (inactive)	23.9 µM (inactive)	7.43 µM (inactive)	–	34.9 µM (inactive)	19.5 µM (inactive)	27 µM (inactive)	16.1 µM (inactive)	24.8 µM (inactive)	35.3 µM (inactive)	15.8 µM (inactive)	34.8	25.9 µM (inactive)	–	53.7 µM (inactive)
CN(C)c1nc(N(C)C)nc(N(C)CN(C)c2nc(N(C)C)nc(N(C)C)n2)n1	> 100 µM (inactive)	14.9 µM (inactive)	> 100 µM (inactive)	> 100 µM (inactive)	> 100 µM (inactive)	> 100 µM (inactive)	> 100 µM (inactive)	> 100 µM (inactive)	> 100 µM (inactive)	> 100 µM (inactive)	> 100 µM (inactive)	> 100 µM (inactive)	> 100	> 100 µM (inactive)	–	> 100 µM (inactive)
O=C(O)CNCc1c2ccccc2[n+]([O-])c2ccccc12	> 100 µM (inactive)	58.2 µM (inactive)	> 100 µM (inactive)	33.5 µM (inactive)	21.7 µM (inactive)	69.3 µM (inactive)	58.1 µM (inactive)	21.1 µM (inactive)	57.1 µM (inactive)	> 100 µM (inactive)	80.5 µM (inactive)	–	30.8	75.7 µM (inactive)	> 100 µM (inactive)	> 100 µM (inactive)
Cc1ccc2nc(NC(=O)C(=O)CC(=O)c3cccc4ccccc34)sc2c1	35.5 µM (inactive)	20.2 µM (inactive)	19.9 µM (inactive)	> 100 µM (inactive)	39.2 µM (inactive)	50.8 µM (inactive)	25.6 µM (inactive)	> 100 µM (inactive)	36 µM (inactive)	19.6 µM (inactive)	23.4 µM (inactive)	–	59.2	48.4 µM (inactive)	19.8 µM (inactive)	19.9 µM (inactive)
O=C1c2cccc3cc([N+](=O)[O-])cc(c23)C(=O)N1CCCN1CCN(CCCN2C(=O)c3cccc4cc([N+](=O)[O-])cc(c34)C2=O)CC1	0.23 µM (active)	0.0594 µM (active)	1.09 µM (active)	0.34 µM (active)	0.0625 µM (active)	0.859 µM (active)	0.0579 µM (active)	0.0695 µM (active)	< 0.01 µM (active)	0.706 µM (active)	< 0.01 µM (active)	0.0933 µM (active)	0.0495	–	0.0702 µM (active)	0.0386 µM (active)
COc1ccc(/C(Cl)=C/c2cc(OC)ccc2OC)cc1	–	81.8 µM (inactive)	–	28.4 µM (inactive)	87.5 µM (inactive)	53 µM (inactive)	38.4 µM (inactive)	98.9 µM (inactive)	62.2 µM (inactive)	63.8 µM (inactive)	61.9 µM (inactive)	20.5 µM (inactive)	53.2	79.6 µM (inactive)	44.7 µM (inactive)	51.4 µM (inactive)
